Test system in the first series: not listed separately
As to the kind of experiment: Cytotoxicity against in human MT4 cells after 5 days by XTT assay. Format: cell-based. As to conditions: time 5 day.
For orientation: CC50 means the concentration at which the toxic effect on the cells reaches its halfway point. A lower CC50 goes with harm at low concentration. `CC(C)OC(=O)[C@H](C)N[P@@](=O)(CO[C@H](C)Cn1cnc2c(N)ncnc21)Oc1ccc(C[C@H](NC(=O)OCc2ccccc2)C(=O)NC2CCCC2)cc1`: the CC50 at 120 h came out at 17000 nM.

As for `CC(C)CCOC(=O)[C@H](Cc1ccc(OP(=O)(CO[C@H](C)Cn2cnc3c(N)ncnc32)N[C@@H](C)C(=O)OC(C)C)cc1)NC(=O)OCc1ccccc1` (stereo partly drawn), the CC50 at 120 h amounted to 8400 nM.

`CCOC(=O)[C@H](Cc1ccc(O[P@@](=O)(CO[C@H](C)Cn2cnc3c(N)ncnc32)N[C@@H](C)C(=O)OC(C)C)cc1)NC(=O)OCc1ccccc1` returned a CC50 at 120 h of 11000 nM.

On to `CCC(CC)COC(=O)[C@H](Cc1ccc(O[P@](=O)(CO[C@H](C)Cn2cnc3c(N)ncnc32)N[C@@H](C)C(=O)OC(C)C)cc1)NC(=O)OCc1ccccc1`, for which the midpoint of cytotoxicity, the CC50 at 120 h, lay at 38000 nM.

`CCCCCCOC(=O)[C@H](Cc1ccc(O[P@](=O)(CO[C@H](C)Cn2cnc3c(N)ncnc32)N[C@@H](C)C(=O)OC(C)C)cc1)NC(=O)OCc1ccccc1` gave a CC50 at 120 h of 17000 nM.

`CCCCCCCCOC(=O)[C@H](Cc1ccc(OP(=O)(CO[C@H](C)Cn2cnc3c(N)ncnc32)N[C@@H](C)C(=O)OC(C)C)cc1)NC(=O)OCc1ccccc1` (stereo partly drawn) registered a CC50 at 120 h of 27000 nM.

In the case of `COC(=O)[C@H](Cc1ccc(O[P@](=O)(CO[C@H](C)Cn2cnc3c(N)ncnc32)N[C@@H](C)C(=O)OC(C)C)cc1)N1CCCC1`, the CC50 at 120 h amounted to 24000 nM.

`CCCCCCOC(=O)[C@H](Cc1ccc(OP(=O)(CO[C@H](C)Cn2cnc3c(N)ncnc32)N[C@@H](C)C(=O)OC(C)C)cc1)NC(=O)OCc1ccccc1` (stereo partly drawn): the CC50 at 120 h was 8400 nM.

On to `COC(=O)[C@H](Cc1ccc(O[P@](=O)(CO[C@H](C)Cn2cnc3c(N)ncnc32)N[C@@H](C)C(=O)OC(C)C)cc1)N(C)C`, for which the CC50 at 120 h is > 50000 nM.

As for `COC(=O)[C@H](Cc1ccc(O[P@@](=O)(CO[C@H](C)Cn2cnc3c(N)ncnc32)N[C@@H](C)C(=O)OC(C)C)cc1)NC(C)=O`, the CC50 at 120 h was > 50000 nM.

`CC(C)OC(=O)[C@H](C)NP(=O)(CO[C@H](C)Cn1cnc2c(N)ncnc21)Oc1ccc(C[C@H](NC(=O)OCc2ccccc2)C(=O)OC(C)(C)C)cc1` (stereo partly drawn) showed a CC50 at 120 h of 6600 nM.

For `COC(=O)[C@H](Cc1ccc(O[P@](=O)(CO[C@H](C)Cn2cnc3c(N)ncnc32)N[C@@H](C)C(=O)OC(C)C)cc1)NC(=O)c1ccccc1`, the CC50 at 120 h was > 50000 nM.

On to `COC(=O)[C@H](Cc1ccc(O[P@@](=O)(CO[C@H](C)Cn2cnc3c(N)ncnc32)N[C@@H](C)C(=O)OC(C)C)cc1)NC(=O)C(F)(F)F`, for which the CC50 at 120 h is > 50000 nM.

For the compound `CC(C)OC(=O)[C@H](C)N[P@](=O)(CO[C@H](C)Cn1cnc2c(N)ncnc21)Oc1ccc(C[C@H](NC(=O)OCc2ccccc2)C(=O)OC2CCCCC2)cc1`, the CC50 at 120 h amounted to 9100 nM.

`COC(=O)[C@H](Cc1ccc(O[P@@](=O)(CO[C@H](C)Cn2cnc3c(N)ncnc32)N[C@@H](C)C(=O)OC(C)C)cc1)N1CCCC1` displayed a CC50 at 120 h of 27000 nM.

In the case of `CCOC(=O)[C@H](Cc1ccc(O[P@](=O)(CO[C@H](C)Cn2cnc3c(N)ncnc32)N[C@@H](C)C(=O)OC(C)C)cc1)NC(=O)OCc1ccccc1`, the CC50 at 120 h is 13000 nM.

Consider `COC(=O)[C@@H](N)Cc1ccc(O[P@](=O)(CO[C@H](C)Cn2cnc3c(N)ncnc32)N[C@@H](C)C(=O)OC(C)C)cc1`, for which the CC50 at 120 h is > 50000 nM.

In another series the test system is Hepatitis B virus. As to the kind of experiment: Antiviral activity against HBV infected in human HepG2-hNTCP cells assessed as reduction in HBV DNA incubated for day 1 followed by compound washout and fresh compound addition on following day and day 3, 6 and 10 measured on day 14 post infection by qPCR analysis. Format: functional, organism-based.
Settings: not given
For orientation: Quantitative PCR measures a nucleic acid by following its amplification.
As a reminder, the EC50 is the concentration needed to bring the measured effect to its halfway point. As for `CC(C)OC(=O)[C@H](C)NP(=O)(CO[C@H](C)Cn1cnc2c(N)ncnc21)Oc1ccc(C[C@@H](C(=O)OC2CCCC2)N(CCCc2ccccc2)Cc2ccccc2)cc1` (stereo partly drawn), the EC50 was determined as 1.2 nM.

Turning to `CC(C)CCOC(=O)[C@H](Cc1ccc(OP(=O)(CO[C@H](C)Cn2cnc3c(N)ncnc32)N[C@@H](C)C(=O)OC(C)C)cc1)NC(=O)OCc1ccccc1` (stereo partly drawn), the EC50 turned out to be 0.2 nM.

With `CC(C)OC(=O)[C@H](C)NP(=O)(CO[C@H](C)Cn1cnc2c(N)ncnc21)Oc1ccc(C[C@@H](C(=O)CC2CCCC2)N(CCCc2ccccc2)Cc2ccccc2)cc1` (stereo partly drawn), the EC50 amounted to 1.3 nM.

As to `CCCCCCOC(=O)[C@H](Cc1ccc(OP(=O)(CO[C@H](C)Cn2cnc3c(N)ncnc32)N[C@@H](C)C(=O)OC(C)C)cc1)NC(=O)OCc1ccccc1` (stereo partly drawn), the EC50 stood at 1.4 nM.

Turning to `COC(=O)[C@H](Cc1ccc(OP(=O)(CO[C@H](C)Cn2cnc3c(N)ncnc32)N[C@@H](C)C(=O)OC(C)C)cc1)NC(=O)OCc1ccccc1` (stereo partly drawn), the EC50 was found to be 0.6 nM.

On to `COC(=O)[C@H](Cc1ccc(O[P@@](=O)(CO[C@H](C)Cn2cnc3c(N)ncnc32)N[C@@H](C)C(=O)OC(C)C)cc1)NC(C)=O`, for which the EC50 worked out at 3.2 nM.

Consider `COC(=O)[C@H](Cc1ccc(O[P@@](=O)(CO[C@H](C)Cn2cnc3c(N)ncnc32)N[C@@H](C)C(=O)OC(C)C)cc1)NC(=O)C(F)(F)F`, for which the EC50 worked out at 0.27 nM.

Test system in a further series: not listed separately
The series can be described thus: Cytotoxicity against human HepG2-hNTCP cells incubated for 3 days by XTT assay. Format: cell-based. The note with it: time 3 day. (Formazan colour is commonly taken as a measure of viable cells.)
For `CC(C)OC(=O)[C@H](C)NP(=O)(CO[C@H](C)Cn1cnc2c(N)ncnc21)Oc1ccc(C[C@@H](C(=O)OC2CCCC2)N(CCCc2ccccc2)Cc2ccccc2)cc1` (stereo partly drawn), the half-maximal cytotoxic concentration (CC50) at 72 h was > 50000 nM.

On to `CC(C)CCOC(=O)[C@H](Cc1ccc(OP(=O)(CO[C@H](C)Cn2cnc3c(N)ncnc32)N[C@@H](C)C(=O)OC(C)C)cc1)NC(=O)OCc1ccccc1` (stereo partly drawn), for which the CC50 at 72 h is > 50000 nM.

`CC(C)OC(=O)[C@H](C)NP(=O)(CO[C@H](C)Cn1cnc2c(N)ncnc21)Oc1ccc(C[C@@H](C(=O)CC2CCCC2)N(CCCc2ccccc2)Cc2ccccc2)cc1` (stereo partly drawn) yielded a CC50 at 72 h of 46000 nM.

On to `CCCCCCOC(=O)[C@H](Cc1ccc(OP(=O)(CO[C@H](C)Cn2cnc3c(N)ncnc32)N[C@@H](C)C(=O)OC(C)C)cc1)NC(=O)OCc1ccccc1` (stereo partly drawn), for which the CC50 at 72 h was > 50000 nM.

`COC(=O)[C@H](Cc1ccc(OP(=O)(CO[C@H](C)Cn2cnc3c(N)ncnc32)N[C@@H](C)C(=O)OC(C)C)cc1)NC(=O)OCc1ccccc1` (stereo partly drawn) gave a CC50 at 72 h of 15000 nM.

On to `COC(=O)[C@H](Cc1ccc(O[P@@](=O)(CO[C@H](C)Cn2cnc3c(N)ncnc32)N[C@@H](C)C(=O)OC(C)C)cc1)NC(C)=O`, for which the CC50 at 72 h is > 50000 nM.

Turning to `COC(=O)[C@H](Cc1ccc(O[P@@](=O)(CO[C@H](C)Cn2cnc3c(N)ncnc32)N[C@@H](C)C(=O)OC(C)C)cc1)NC(=O)C(F)(F)F`, the CC50 at 72 h was > 50000 nM.

For the next series, the system named is Human immunodeficiency virus 1. The series can be described thus: Antiviral activity against HIV-1 infected in MT4 cells assessed as reduction in virus-induced cytopathic effect preincubated for 1 hr followed by viral infection and measured after 5 days by XTT assay. Format: functional, organism-based. As to conditions: Human immunodeficiency virus 1, MT4. In general terms: Damage to the host cells serves as the signal in cytopathic effect assays.
`CC(C)OC(=O)[C@H](C)N[P@@](=O)(CO[C@H](C)Cn1cnc2c(N)ncnc21)Oc1ccc(C[C@H](NC(=O)OCc2ccccc2)C(=O)NC2CCCC2)cc1`: the EC50 was determined as 10 nM.

On to `CC(C)CCOC(=O)[C@H](Cc1ccc(OP(=O)(CO[C@H](C)Cn2cnc3c(N)ncnc32)N[C@@H](C)C(=O)OC(C)C)cc1)NC(=O)OCc1ccccc1` (stereo partly drawn), for which the EC50 is 0.4 nM.

Regarding `CCOC(=O)[C@H](Cc1ccc(O[P@@](=O)(CO[C@H](C)Cn2cnc3c(N)ncnc32)N[C@@H](C)C(=O)OC(C)C)cc1)NC(=O)OCc1ccccc1`, the EC50 was determined as 3.3 nM.

Turning to `CCC(CC)COC(=O)[C@H](Cc1ccc(O[P@](=O)(CO[C@H](C)Cn2cnc3c(N)ncnc32)N[C@@H](C)C(=O)OC(C)C)cc1)NC(=O)OCc1ccccc1`, the EC50 amounted to 36 nM.

In the case of `CCCCCCOC(=O)[C@H](Cc1ccc(O[P@](=O)(CO[C@H](C)Cn2cnc3c(N)ncnc32)N[C@@H](C)C(=O)OC(C)C)cc1)NC(=O)OCc1ccccc1`, the EC50 was found to be 23 nM.

On to `CCCCCCCCOC(=O)[C@H](Cc1ccc(OP(=O)(CO[C@H](C)Cn2cnc3c(N)ncnc32)N[C@@H](C)C(=O)OC(C)C)cc1)NC(=O)OCc1ccccc1` (stereo partly drawn), for which the EC50 amounted to 38 nM.

As to `COC(=O)[C@H](Cc1ccc(O[P@](=O)(CO[C@H](C)Cn2cnc3c(N)ncnc32)N[C@@H](C)C(=O)OC(C)C)cc1)N1CCCC1`, the EC50 stood at 11 nM.

In the case of `CCCCCCOC(=O)[C@H](Cc1ccc(OP(=O)(CO[C@H](C)Cn2cnc3c(N)ncnc32)N[C@@H](C)C(=O)OC(C)C)cc1)NC(=O)OCc1ccccc1` (stereo partly drawn), the EC50 is 1.8 nM.

For the compound `COC(=O)[C@H](Cc1ccc(O[P@](=O)(CO[C@H](C)Cn2cnc3c(N)ncnc32)N[C@@H](C)C(=O)OC(C)C)cc1)N(C)C`, the EC50 was determined as 2500 nM.

`COC(=O)[C@H](Cc1ccc(O[P@@](=O)(CO[C@H](C)Cn2cnc3c(N)ncnc32)N[C@@H](C)C(=O)OC(C)C)cc1)NC(C)=O`: the EC50 came out at 720 nM.

For `CC(C)OC(=O)[C@H](C)NP(=O)(CO[C@H](C)Cn1cnc2c(N)ncnc21)Oc1ccc(C[C@H](NC(=O)OCc2ccccc2)C(=O)OC(C)(C)C)cc1` (stereo partly drawn), the EC50 is 13 nM.

For `COC(=O)[C@H](Cc1ccc(O[P@](=O)(CO[C@H](C)Cn2cnc3c(N)ncnc32)N[C@@H](C)C(=O)OC(C)C)cc1)NC(=O)c1ccccc1`, the EC50 is 72 nM.

Turning to `COC(=O)[C@H](Cc1ccc(O[P@@](=O)(CO[C@H](C)Cn2cnc3c(N)ncnc32)N[C@@H](C)C(=O)OC(C)C)cc1)NC(=O)C(F)(F)F`, the EC50 was found to be 150 nM.

Consider `CC(C)OC(=O)[C@H](C)N[P@](=O)(CO[C@H](C)Cn1cnc2c(N)ncnc21)Oc1ccc(C[C@H](NC(=O)OCc2ccccc2)C(=O)OC2CCCCC2)cc1`, for which the EC50 amounted to 8.4 nM.

As to `COC(=O)[C@H](Cc1ccc(O[P@@](=O)(CO[C@H](C)Cn2cnc3c(N)ncnc32)N[C@@H](C)C(=O)OC(C)C)cc1)N1CCCC1`, the EC50 was 16 nM.

As to `CCOC(=O)[C@H](Cc1ccc(O[P@](=O)(CO[C@H](C)Cn2cnc3c(N)ncnc32)N[C@@H](C)C(=O)OC(C)C)cc1)NC(=O)OCc1ccccc1`, the EC50 was determined as 20 nM.

Take `COC(=O)[C@@H](N)Cc1ccc(O[P@](=O)(CO[C@H](C)Cn2cnc3c(N)ncnc32)N[C@@H](C)C(=O)OC(C)C)cc1`: the EC50 was found to be 650 nM.
